Legend:
Aβ42 = assay: In vivo efficacy Method 2: brain soluble Aβ42 by ELISA; design: species or system mouse; settings: Table 4b, single oral dose, overnight fasted non-transgenic animals, sacrificed after 4 h, soluble fraction of brain homogenates
From the text: (§1) To determine whether acute administration of an Aβ42 lowering agent would reduce Aβ42 levels in vivo, non-transgenic rodents, e.g. mice or rats were used. Animals treated with the Aβ42 lowering agent were examined and compared to those untreated or treated with vehicle and brain levels of soluble Aβ42 and total Aβ were quantitated by standard techniques, for example, using ELISA. Treatment periods varied from hours (h) to days and were adjusted based on the results of the Aβ42 lowering once a time course of onset of effect could be established.
(§2) A typical protocol for measuring Aβ42 lowering in vivo is shown but it is only one of many variations that could be used to optimize the levels of detectable Aβ. For example, Aβ42 lowering compounds were formulated in 20% of Captisol® (a sulfobutyl ether of β-cyclodextrin) in water or 20% hydroxypropyl β cyclodextrin. The Aβ42 lowering agents were administered as a single oral dose or by any acceptable route of administration to overnight fasted animals. After 4 h, the animals were sacrificed and Aβ42 levels were analysed.
(§3) Blood was collected by decapitation and exsanguinations in EDTA-treated collection tubes. Blood was centrifuged at 1900 g for 10 minutes (min) at 4° C. and the plasma recovered and flash frozen for later analysis. The brain was removed from the cranium and hindbrain. The cerebellum was removed and the left and right hemisphere were separated. The left hemisphere was stored at −18° C. for quantitative analysis of test compound levels. The right hemisphere was rinsed with phosphate-buffered saline (PBS) buffer and immediately frozen on dry ice and stored at −80° C. until homogenization for biochemical assays.
(§4) Mouse brains from non-transgenic animals were resuspended in 8 volumes of 0.4% DEA (diethylamine)/50 mM NaCl containing protease inhibitors (Roche-11873580001 or 04693159001) per gram of tissue, e.g. for 0.158 g brain, add 1.264 ml of 0.4% DEA. All samples were homogenized in the FastPrep-24 system (MP Biomedicals) using lysing matrix D (MPBio #6913-100) at 6 m/s for 20 seconds. Homogenates were centrifuged at 221.300×g for 50 min. The resulting high speed supernatants were then transferred to fresh eppendorf tubes. Nine parts of supernatant were neutralized with 1 part 0.5 M Tris-HCl pH 6.8 and used to quantify Aβtotal and Aβ42.
(§5) To quantify the amount of Aβtotal and Aβ42 in the soluble fraction of the brain homogenates, Enzyme-Linked-Immunosorbent-Assays were used . Briefly, the standards (a dilution of synthetic Aβ1-40 and Aβ1-42, Bachem) were prepared in 1.5 ml Eppendorf tube in Ultraculture, with final concentrations ranging from 10000 to 0.3 pg/ml. The samples and standards were co-incubated with HRPO-labelled N-terminal antibody for Aβ42 detection and with the biotinylated mid-domain antibody 4G8 for Aβtotal detection. 50 μl of conjugate/sample or conjugate/standards mixtures were then added to the antibody-coated plate (the capture antibodies selectively recognize the C-terminal end of Aβ42, antibody JRF/cAβ42/26, for Aβ42 detection and the N-terminus of Aβ, antibody JRF/rAβ/2, for Aβtotal detection). The plate was allowed to incubate overnight at 4° C. in order to allow formation of the antibody-amyloid complex. Following this incubation and subsequent wash steps the ELISA for Aβ42 quantification was finished by addition of Quanta Blu fluorogenic peroxidase substrate according to the manufacturer's instructions (Pierce Corp., Rockford, Ill.). A reading was performed after 10 to 15 min (excitation 320/emission 420).
In this model at least 20% Aβ42 lowering compared to untreated animals would be advantageous.

Aβtotal = assay: In vivo efficacy Method 2: brain soluble Aβtotal by ELISA; design: species or system mouse; settings: Table 4b, single oral dose, overnight fasted non-transgenic animals, sacrificed after 4 h, soluble fraction of brain homogenates
From the text: as §1, §2, §3, §4, §5
For Aβtotal detection, a Streptavidine-Peroxidase-Conjugate was added, followed 60 min later by an additional wash step and addition of Quanta Blu fluorogenic peroxidase substrate according to the manufacturer's instructions (Pierce Corp., Rockford, Ill.). A reading was performed after 10 to 15 min (excitation 320 nm/emission 420 nm).

Row | Compound | Aβ42 (% Ctrl) _Mean (Aβ42) [% Ctrl] | Aβtotal (% Ctrl) _Mean (Aβtotal) [% Ctrl]
1 | COc1nc(Nc2cccc3c2nc(-c2ccc(F)cc2)n3C)ccc1-n1cnc(C)c1 [Compound 15] | 39 | 82
2 | COc1cc(Nc2cc(C(C)C)nc3c2nc(-c2ccc(F)cc2)n3C)ccc1-n1cnc(C)n1 [Compound 110] | 78 | 106
